Source: patent US20240026458A1, “Method for Determining Sensitivity to an Antineoplastic Agent” (UNIVERSITÉ LIBRE DE BRUXELLES, priority 2020, published 2024)

How the values were obtained:
[1] = tested on: FAT1 KO human SCC cells; assay: Expression of YAP1, ZEB1, E-Cadherin and SOX2 (immunostaining) in FAT1 KO cells treated with CAMK2 or SRC inhibitors; assay type: cell-based
Experimental: After 96 h the cells were collected for WB as described above or for FACS analysis. For immunostaining present inventors followed the same treatment but the cells were plated previously on coverslips covered with gelatin.
After 72 h the cells were collected for WB or immunostaining as described above.

[2] = tested on: FAT1 WT and FAT1 KO human SCC cells (A388); assay: Drug sensitivity assay (cell viability by FACS), FAT1 WT versus FAT1 KO cells; assay type: cell-based; details: cell viability at 48 h, serial dilution of inhibitor, 5% FBS medium
Experimental: For the drug sensitivity assay, cells have been seeded at a density of 4000 cells/well in a 96 well plate. […] 48 hours after the start of treatment, cells have been harvested by trypsinization, and quantified by counting the number of living cells by FACS. Living cells were selected by forward and side scatter and by Hoechst dye exclusion. Each data point is the result of at least three independent replicates; each of the replicates is evaluated using a technical duplicate. Drug response curves and IC50 values have been calculated using the Prism8 software.

[3] = tested on: surface CD44; assay: FACS analysis of surface CD44 in FAT1 KO cells treated with inhibitor; assay type: cell-based, human; details: CAMK2 inhibitor (KN93) 10 μM, versus DMSO
Experimental: CD44 expression in FAT1 WT and FAT1 KO human SCC cells was performed after trypsinization of cells and incubation with APC conjugated anti-CD44 (Clone IM7, BioLegend Cat #103011, dilution 1:50) antibody. Living tumor cells were selected by forward and side scatter, doublets discriminating and DAPI dye exclusion.
For CAMK2 inhibition present inventors used CAMK2 inhibitor KN93 (Selleckchem Cat #57423, dissolved in DMSO) at 10 μM and present inventors incubated cells during 96 h refreshing the medium once after 48 h. After 96 h the cells were collected for WB as described above or for FACS analysis. For immunostaining present inventors followed the same treatment but the cells were plated previously on coverslips covered with gelatin.

[4] = tested on: H3K27me3; assay: Western blot of global H3K27me3 in cells treated with inhibitor; assay type: cell-based, human; details: versus DMSO
Experimental: The cells were lysed in cell lysis buffer (Cell Signaling, catalog #9803) with phosphatase inhibitor cocktail (Cell Signaling, catalog 5870) and 1 mM PMSF (Sigma, Cat #P7626) for 5 minutes on ice, sonicated 5 times 10 seconds and then centrifuged for 10 min at 14.000 rpm at 4° C. A range of 5 to 30 micrograms of cell lysate was loaded in NuPage 10% Bis-Tris gel (Invitrogen, Cat #NP0315BOX) and separated by electrophoresis. Proteins were transferred on nitrocellulose membranes (Thermo Scientific, Cat #88018). The membranes were incubated overnight with anti-phospho-CAMK2 (Rabbit, 1/133, Cell Signaling, clone D21E4, cat #12716) or anti-phospho-SCR Tyr416 (Rabbit, 1:3000, Cell Signaling, clone D49G4, Cat #6943) or anti-H3K27Me3 Lys27 (Rabbit, 1:3000, Millipore, Cat #17-622) or anti-phospho-MEK1/MEK2 Ser218, SER222, Ser226 (Rabbit, 1:1000, Invitrogen, Cat #44-454G) or anti-phospho-EGFR Y1197 (Rat, 1:500, R&D, MAB8058), anti-CAMK2 (pan) (Rabbit, 1/125, Cell Signaling, clone D11A10, cat #4436) or anti-SRC (Rabbit, 1:1000, Cell Signaling, clone32G6, Cat #2123) or anti-H3 (Rabbit, 1:6000, Abcam, Cat #ab1791) or anti-MEK1/MEK2 (Rabbit, 1:1000, Invitrogen, Cat #PA5-31917) or anti-EGFR (Rabbit, 1:1000, Cell Signaling, clone D38B1, Cat #4267), anti-YES (Rabbit, 1:1000, Cell Signaling, clone D9P3E, Cat #65890) and anti-β-actin (1:2000, Abcam, Cat #ab8227). […]

[5] = tested on: SRC/YES phosphorylation; assay: Western blot of phosphorylated SRC/YES in FAT1 KO cells treated with inhibitor; assay type: cell-based, human; details: KN93 10 μM, 96 h, versus DMSO
Experimental: A388 cells (human skin SCC) cells were maintained in DMEM medium supplemented with 10% FBS, 100 U/ml Pen/Strep and 2 mM L-glutamine. 293T cells were maintained in DMEM (Gibco) supplemented with 10% FBS, 2 mM Glutamine, 100 U/ml Pen/Strep solution, MEM Non-Essential Amino Acids Solution and Pyruvate. All cell lines were acquired from ATCC and cultured at 37 degrees with 20% 02 and 5% CO2.
(§1) The cells were lysed in cell lysis buffer (Cell Signaling, catalog #9803) with phosphatase inhibitor cocktail (Cell Signaling, catalog 5870) and 1 mM PMSF (Sigma, Cat #P7626) for 5 minutes on ice, sonicated 5 times 10 seconds and then centrifuged for 10 min at 14.000 rpm at 4° C. A range of 5 to 30 micrograms of cell lysate was loaded in NuPage 10% Bis-Tris gel (Invitrogen, Cat #NP0315BOX) and separated by electrophoresis. Proteins were transferred on nitrocellulose membranes (Thermo Scientific, Cat #88018). […]

[6] = tested on: SOX2 expression; assay: SOX2 mRNA (RT-qPCR) and protein (Western blot) in FAT1 WT cells treated with EZH2 inhibitor; assay type: cell-based, human; details: GSK343 500 nM, 7 days, versus DMSO
Experimental: as §1
RNA extraction from FACS isolated cells was performed using RNeasy micro kit (QIAGEN) according to the manufacturer's recommendations. For real-time PCR, after nanodrop quantification, the first strand cDNA was synthesized using Superscript II (Invitrogen) and random hexamers (Roche) in […] final volume. Control of genomic contaminations was measured for each sample by performing the same procedure with or without reverse transcriptase. Quantitative PCR assays were performed using 1 ng of cDNA as template, SYBRGreen mix (Applied Bioscience) on Light Cycler 96 (Roche) real-time PCR system. […]

[7] = FAT1 KO cells treated with inhibitor (data not shown)

SMILES | SOX2 expression ([1]; FAT1 KO TCs treated with inhibitor (data not shown)) | E-Cadherin expression [1, 7] | ZEB1 [1, 7] | colony morphology [1, 7] | nuclear YAP1 [1, 7] | sensitivity of FAT1 KO cells as compared to FAT1 WT cells [2] | levels of surface CD44 [3] | global levels of H3K27me3 ([4]; FAT1 KO cells treated with CAMK2 inhibitor) | SRC/YES phosphorylation levels [5] | H3K27me3 ([4]; FAT1 WT cells, GSK343 500 nM, 7 days) | SOX2 mRNA expression [6] | SOX2 protein expression [6]
COc1ccc(S(=O)(=O)N(CCO)c2ccccc2CN(C)C/C=C/c2ccc(Cl)cc2)cc1 [KN93] | decrease | increase | strong decrease | more compact epithelial colonies | strong decrease | significantly more sensitive | decreased significantly | increased | greatly decreased | – | – | –
CCCc1cc(C)[nH]c(=O)c1CNC(=O)c1cc(-c2ccnc(N3CCN(C)CC3)c2)cc2c1cnn2C(C)C [GSK343] | – | – | – | – | – | – | – | – | – | decreased | increased | increased
